For four molecules, IC50 and viability, T/C results are on record in PubChem BioAssay AID1963858 (Molecular Pharmacology Branch, DTP, NCI, 2024).

In the assay the test system is HOP-62 multicell spheroids with HUVEC/MSC, viability. In words: Anticancer human tumor HOP-62 cell line growth inhibition [KRAS2].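 On all read-outs here: viability read after a week of compound exposure.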 To be noted: for viability, T/C: stronger effect = lower value. The source says: Multicellular complex tumor spheroid response to RAS pathway inhibitors in combination with a targeted agents in patient-derived cell lines with oncogenic KRAS variants from multiple cancer types
A high-throughput screen of multi-cell type tumor spheroids was designed to identify active combinations of targeted small molecules and KRAS pathway inhibitors. Complex spheroids include a stromal component modeled by human endothelial cells (HUVEC) and fibroblasts modeled by human mesenchymal stem cells (MSCs). The concentration ranges selected for each drug and investigational agent were based upon clinically achievable concentrations if the clinical Cmax of the agent was known.
Compounds. The drugs and investigational agents: BI-3406 (NSC825286), BAY-293 (NSC824723), batoprotafib (TNO155; NSC825523), sotorasib (AMG 510; NSC818433), MRTX1257 (NSC819558), elimusertib (BAY 1895344; NSC800525), molibresib (GSK525762; NSC774829), temuterkib (LY3214996; NSC803410), venetoclax (NSC766270), alisertib (NSC759677), olaparib (NSC753686), talazoparib (NSC767125), erdafitinib (NSC781556), ipatasertib (NSC767898), cabozantinib (NSC761068), nintedanib (NSC756659), abemaciclib (NSC768073), docetaxel (NSC628503), trametinib (NSC758246), and sapanisertib (NSC764658) were obtained from the National Cancer Institute (NCI) Developmental Therapeutics Program Chemical Repository. The FDA-approved anticancer drug set is available from the Developmental Therapeutics Program. […] The stock solutions were prepared in dimethyl sulfoxide (DMSO, Sigma-Aldrich, St. Louis, MO, cat. D2650) at 800-fold the tested concentration and stored at -70 degrees C prior to their use. All drugs and investigational agents were tested over a range starting from a high concentration at or near the clinical Cmax and decreasing in half-log increments. If the clinical Cmax for an agent had not been determined, the highest concentration tested was 10 microM.
Cell Culture. All cells were maintained in an incubator at 37 degrees C and 5% CO2 with 95% humidity. The PDC lines were cultured according to standard operating procedures established by the NCI PDMR (https://pdmr.cancer.gov/sops/default.htm). Briefly, all PDCs were thawed and cultured in Matrigel-coated flasks prepared with a working solution of 1X Ham's F-12 nutrient mix, without supplementation (Invitrogen, Waltham, MA, cat. 11765054), 100 U/mL penicillin-streptomycin (Invitrogen, cat. 15140122), and 2.5% Matrigel (Corning Inc., Corning, NY, cat. 354248) for the first three passages. All PDCs were cultured in complete DMEM/F-12 media containing advanced DMEM/F-12 (Invitrogen, cat. 12634028), 4.9% defined fetal bovine serum, heat inactivated (HyClone Laboratories Inc., Logan, UT, cat. SH30070.03HI), 389 ng/mL hydrocortisone (Sigma-Aldrich, cat. H4001), 9.7 ng/mL human EGF recombinant protein (Invitrogen, cat. PHG0313), 23.4 microg/mL adenine (Sigma-Aldrich, cat. A2786), 97.3 U/mL penicillin-streptomycin (Invitrogen, cat. 15140122), 1.9 mM L-glutamine (Invitrogen, cat. 25030081), and 9.7 microM Y-27632 dihydrochloride (Tocris Bioscience, Bristol, United Kingdom, cat. 1254). The PDCs were cultured in complete DMEM/F12 media without 9.7 microM Y-27632 dihydrochloride for at least two passages prior to the screen. The established cell line HOP-62 was cultured in RPMI 1640 medium, HEPES (Invitrogen, cat. 22400105) with 10% defined fetal bovine serum (HyClone Laboratories Inc., cat. SH30070.03) and 2 mM L-glutamine (Invitrogen, cat. 25030081). The pooled donor HUVEC were cultured in endothelial cell growth medium 2 (PromoCell, Heidelberg, Germany, cat. C-22011) and the hMSC were cultured in mesenchymal stem cell growth medium 2 (PromoCell, cat. C-28009). For all experiments, HUVEC and hMSC were used at passages </=5, while the malignant cell lines were used at passages </=15. […]

The mark [1] stands for this setting: curve of first compound, second compound 0.1 µM.
Setting [2] is: curve of first compound, second compound 0.316 µM.
[3] abbreviates: curve of first compound, second compound 1 µM.
[4] abbreviates: curve of first compound, second compound 3.16 µM.
[5] abbreviates: curve of first compound, second compound 10 µM.
Setting [6] is: second compound 0.1 µM, first compound 0.0316 µM.
Where [7] appears, read: second compound 0.1 µM, first compound 0.1 µM.
[8] abbreviates: second compound 0.1 µM, first compound 0.316 µM.
[9] abbreviates: second compound 0.1 µM, first compound 1 µM.
Where [10] appears, read: second compound 0.1 µM, first compound 3.16 µM.
The mark [11] stands for this setting: second compound 0.1 µM, first compound 10 µM.
The mark [12] stands for this setting: second compound 0.316 µM, first compound 0.0316 µM.
The mark [13] stands for this setting: second compound 0.316 µM, first compound 0.1 µM.
[14] abbreviates: second compound 0.316 µM, first compound 0.316 µM.
The mark [15] stands for this setting: second compound 0.316 µM, first compound 1 µM.
Setting [16] is: second compound 0.316 µM, first compound 3.16 µM.
Where [17] appears, read: second compound 0.316 µM, first compound 10 µM.
[18] abbreviates: second compound 1 µM, first compound 0.0316 µM.
Setting [19] is: second compound 1 µM, first compound 0.1 µM.
The mark [20] stands for this setting: second compound 1 µM, first compound 0.316 µM.
Setting [21] is: second compound 1 µM, first compound 1 µM.
[22] abbreviates: second compound 1 µM, first compound 3.16 µM.
The mark [23] stands for this setting: second compound 1 µM, first compound 10 µM.
The mark [24] stands for this setting: second compound 3.16 µM, first compound 0.0316 µM.
[25] abbreviates: second compound 3.16 µM, first compound 0.1 µM.
Setting [26] is: second compound 3.16 µM, first compound 0.316 µM.
Setting [27] is: second compound 3.16 µM, first compound 1 µM.
Where [28] appears, read: second compound 3.16 µM, first compound 3.16 µM.
The mark [29] stands for this setting: second compound 3.16 µM, first compound 10 µM.
Where [30] appears, read: second compound 10 µM, first compound 0.0316 µM.
Setting [31] is: second compound 10 µM, first compound 0.1 µM.
[32] abbreviates: second compound 10 µM, first compound 0.316 µM.
The mark [33] stands for this setting: second compound 10 µM, first compound 1 µM.
The mark [34] stands for this setting: second compound 10 µM, first compound 3.16 µM.
Setting [35] is: second compound 10 µM, first compound 10 µM.

Each structure is given as a SMILES string.

As for `Cn1nccc1Nc1nccc(-c2cc3c(s2)C(C)(C)N(CCN2CCOCC2)C3=O)n1` + C=CC(=O)N1CCN(c2nc(=O)n(-c3c(C)ccnc3C(C)C)c3nc(-c4c(O)cccc4F)c(F)cc23)C(C)C1, the IC50 was 0.153 µM under setting [1]; 0.253 µM under setting [2]; 0.153 µM under setting [3]; 0.361 µM under setting [4]; under 0.0316 µM under setting [5]. The viability, T/C under setting [6] was 63.7%; the viability, T/C under setting [7] was 56.7%; the viability, T/C under setting [8] was 38.6%; the viability, T/C under setting [9] is 23.9%; the viability, T/C under setting [10] was 16.5%; the viability, T/C under setting [11] was 17.1%. In addition, the viability, T/C runs as follows: under setting [12], 64.5%; under setting [13], 61.5%; under setting [14], 47.3%; under setting [15], 27.2%; under setting [16], 20.4%; under setting [17], 17%. The viability, T/C under setting [18] was 63.7%; the viability, T/C under setting [19] was 54.4%; the viability, T/C under setting [20] was 41.3%; the viability, T/C under setting [21] was 31.3%; the viability, T/C under setting [22] was 18.4%; the viability, T/C under setting [23] was 24.6%. Also, the viability, T/C reads like this: under setting [24], 50%; under setting [25], 55%; under setting [26], 52.1%; under setting [27], 34%; under setting [28], 25.2%; under setting [29], 25%. Further, the viability, T/C is 46.1% under setting [30]; 41.5% under setting [31]; 33.8% under setting [32]; 28.2% under setting [33]; 27.6% under setting [34]; 34.4% under setting [35].
For the molecule `Cn1nccc1Nc1nccc(-c2cc3c(s2)C(C)(C)N(CCN2CCOCC2)C3=O)n1` + CNCc1ccccc1-c1csc(C(C)Nc2nc(C)nc3cc(OC)c(OC)cc23)c1, the concentration for half-maximal inhibition (IC50) was 1.22 µM under setting [1]; 0.859 µM under setting [2]; 0.646 µM under setting [3]; under 0.0316 µM under setting [4]; under 0.0316 µM under setting [5]. The viability, T/C was 110% under setting [6]; 102% under setting [7]; 92.8% under setting [8]; 52.5% under setting [9]; 34.6% under setting [10]; 28.3% under setting [11]. Besides, the viability, T/C under setting [12] was 104%; the viability, T/C under setting [13] is 98.3%; the viability, T/C under setting [14] was 77.1%; the viability, T/C under setting [15] was 47.5%; the viability, T/C under setting [16] was 25.3%; the viability, T/C under setting [17] was 26.9%. The viability, T/C is 101% under setting [18]; 99% under setting [19]; 68.3% under setting [20]; 39.6% under setting [21]; 27.6% under setting [22]; 27.1% under setting [23]. For the same molecule, the viability, T/C under setting [24] is 1.01%; the viability, T/C under setting [25] was 2.12%; the viability, T/C under setting [26] is 0.23%; the viability, T/C under setting [27] was 0.16%; the viability, T/C under setting [28] is 0.1%; the viability, T/C under setting [29] is 0.18%. The viability, T/C reads like this: under setting [30], 0.19%; under setting [31], 0.19%; under setting [32], 0.2%; under setting [33], 0.2%; under setting [34], 0.22%; under setting [35], 0.23%.
With `CC(C)n1nc(-c2ccc3oc(N)nc3c2)c2c(N)ncnc21`, the viability, T/C was 93.7% [middle of 5 runs] (compound 0.000316 µM); 80.3% [middle of 5 runs] (compound 0.001 µM); 44% [middle of 5 runs] (compound 0.01 µM); 25.6% [middle of 5 runs] (compound 0.0316 µM); 18.1% [middle of 5 runs] (compound 0.1 µM).
On to `CC(C)NCC(C(=O)N1CCN(c2ncnc3c2C(C)CC3O)CC1)c1ccc(Cl)cc1` (configuration not stated), for which the viability, T/C is, setting by setting: (compound 0.0316 µM) 101% [middle of 5 runs]; (compound 0.1 µM) 104% [middle of 5 runs]; (compound 0.316 µM) 80.4% [middle of 5 runs]; (compound 1 µM) 62.8% [middle of 5 runs]; (compound 3.16 µM) 27.9% [middle of 5 runs]; (compound 10 µM) 13.2% [middle of 5 runs]. In addition, the IC50 (curve of compound) is 1.49 µM [middle of 5 runs].

The term IC50 denotes the point on the concentration scale where inhibition reaches its midpoint. As a reminder, the viability, T/C is the result in the treated group divided by that in the control group, in per cent.
